{"source": "paper PMC9571594", "about": "“Development of Semisynthetic Apoptosis-Inducing Agents Based on Natural Phenolic Acids Scaffold: Design, Synthesis and In-Vitro Biological Evaluation” (Molecules, 2022)", "type_in_all_cases": "cell-based", "key": {"Caco-2 cancer cell line": {"test_system": "Caco-2 cancer cell line", "test": "MTT cell viability assay, Caco-2", "conditions": "MTT, 48 h, average of triplicates, semi-synthesized compounds (Table 3), read-out: IC50 (μM) on Caco-2 cancer cell line", "experimental": "MCF-7 cells (Human breast adenocarcinoma), HepG2 (human hepatocellular carcinoma), A549 (human lung adenocarcinoma), Caco-2 (colon carcinoma), PANC-1 (human pancreatic cancer), and Vero cells (derived from normal kidney cells) were supplied by (Holding Company for Biological Products and Vaccines VACSERA; Giza, Egypt). The cells were cultured in PRMI 1640 medium (Lonza, Switzerland) supplemented with 10% fetal bovine serum (Gibco), 1% penicillin and 1% streptomycin (Sigma Aldrich, Saint Louis, MO, USA) at 37 °C under an atmosphere of 5% CO2 and 95% air.\nThe effect of parent compounds and their derivatives were assessed by (3-(4,5-dimethylthiazol-2-yl)-2,5diphenyl-tetrazolium bromide) MTT assay. […] After a merged sheet of cells developed, the growth media was decanted from the 96-well microtiter and refilled with different concentrations of compounds (µg/mL), and the plate was incubated at 37 °C for 48 h to minimize exposure to the dissolving agent (Supporting Information).\nMTT solution (BIO BASIC CANADA INC) was prepared [5 mg/mL in phosphate buffered saline (PBS)], added to each well and incubated for 4 h, then after removing the media, 200 μL of DMSO was added to each well to solubilize the formazan crystals and the optical density of the formazan product was measured at 560 nm using microplate reader (mindray, MR-96A). The results were calculated as the mean of the three independent experiments. […]\nDetermination of sample cytotoxicity on cells (MTT protocol) […]\nwell) and incubated at 37°C for 24 hours to develop a complete monolayer sheet.\n2- Growth medium was decanted from 96 well micro titer plates after confluent sheet of cells were formed, cell monolayer was washed twice with wash media.\n3- two-fold dilutions of tested sample was made in RPMI medium with 2% serum […]\n4- 0.1 ml of each dilution was tested in different wells leaving 3 wells as control, receiving only maintenance medium.\n5- Plate was incubated at 37°C and examined. Cells were checked for any physical signs of toxicity, e.g. partial or complete loss of the monolayer, rounding, shrinkage, […]\n6- MTT solution was prepared (5mg/ml in PBS) (BIO BASIC CANADA INC).\n8- 20ul MTT solution were added to each well. Place on a shaking table, 150rpm for 5 minutes, to thoroughly mix the MTT into the media.\n10) Dump off the media. (dry plate on paper towels to remove residue if necessary. […] 9 ش - ايلعلا هبضهلا - مطقملا / ىسيئرلا لمعملا […]"}, "Caco-2 cells [1]": {"test_system": "Caco-2 cells", "test": "Cell-cycle analysis by flow cytometry", "conditions": "for %G0–G1 / %G2/M / %S / %Pre-G1: Caco-2 cells; for %G0–G1 / %G2/M / %S: cell-cycle distribution after treatment; for %Pre-G1: Pre-G1 = apoptotic population; for apoptotic population compared to the parent compound: Caco-2, in words, versus parent 1 or 2", "experimental": "The potential candidates with anti-tumor effect on the Caco-2 cell line along with a high SI were chosen for cell-cycle analysis. The cell-cycle distribution and cell death were analyzed using Annexin V-FITC/PI staining and flow cytometry (Table 4, Figure 4).\nIn order to determine the percentage of viable, apoptotic and necrotic cells after treatment with our compounds, double-staining with fluorescein isothiocyanate (FITC) and PI was performed. Annexin V-FITC Apoptosis Detection Kit (BioVision, CA, USA) was used. Briefly, cultured Caco-2 were treated with the tested compounds or DMSO for 24h. Cells were then collected by centrifugation at 2000 rpm for 5 min, and the pellet was washed with PBS then centrifuged again at 2000 rpm for 5 min then resuspended in 500μL of the kit’s binding buffer before adding the Annexin V-FITC and PI. The cells were then incubated at room temperature in the dark for 5 min. […]\nAssay : Cell Cycle Analysis\nKit used : ab139418_Propidium Iodide Flow Cytometry Kit/BD\nAssay samples :Cell culture\n(§1) Cpd. No. Cpd. No. Cpd. No. Cpd. No."}, "Caco-2 cells [2]": {"test_system": "Caco-2 cells", "test": "Annexin V-FITC/PI apoptosis assay by flow cytometry", "design": "key: % of cells", "conditions": "annexin-V FITC/PI staining, 24h", "experimental": "In order to determine the percentage of viable, apoptotic and necrotic cells after treatment with our compounds, double-staining with fluorescein isothiocyanate (FITC) and PI was performed. Annexin V-FITC Apoptosis Detection Kit (BioVision, CA, USA) was used. Briefly, cultured Caco-2 were treated with the tested compounds or DMSO for 24h. Cells were then collected by centrifugation at 2000 rpm for 5 min, and the pellet was washed with PBS then centrifuged again at 2000 rpm for 5 min then resuspended in 500μL of the kit’s binding buffer before adding the Annexin V-FITC and PI. The cells were then incubated at room temperature in the dark for 5 min. Annexin V-FITC binding was measured using FACS Calibur flow cytometer (BD biosciences, USA) (Ex = 488 nm, Em = 533 nm, FL1 filter for annexin and FL2 filter for PI)."}, "p53": {"test_system": "p53", "test": "RT-qPCR gene expression of p53", "experimental": "(§2) Gene expression was chosen over Western blotting for more accurate quantification and thus comparison. The gene expression of the p53, caspase 3 and Bax genes was measured.\n(§3) The treated cells were harvested and the total RNA was extracted using RNeasy Mini Kit (Qiagen) according to the manufacturer’s instruction. The primers of the required genes (Table 6) were used for SYBR Green qRT-PCR using a one-step RT-PCR kit with SYBR Green (Bio-Rad). qRT-PCR was performed on Rotor Gene Q (Qiagen). […] Rotor-Gene 6000 Series Software was used for data analysis. and their HGNC ID was added (Table 6) […]\n(§4) Researcher : DR Moh.Abdelbasir email: m_a_baser@yahoo.com mob.01 […]\n(§5) Reader : Rotorgene RT- PCR system\n(§6) Kit used : Qiagen RNA extraction/BioRad syber green PCR MMX\n(§7) Assay samples :Cell culture Lysate\nas §1\n(§8) Run On Software Version Rotor-Gene 1.7.87\n(§9) This report generated by Rotor-Gene 6000 Series Software 1.7 (Build 87) Copyright 2000-2006 Corbett Research, a Division of Corbett Life Science. All rights reserved. […]"}, "Caspase 3": {"test_system": "Caspase 3", "test": "RT-qPCR gene expression of caspase 3", "experimental": "as §2, §3, §4, §5, §6, §7, §1, §8, §9"}, "Bax": {"test_system": "Bax", "test": "RT-qPCR gene expression of Bax", "experimental": "as §2, §3, §4, §5, §6, §7, §1, §8, §9"}, "MMP-2": {"test_system": "MMP-2", "test": "RT-qPCR gene expression of MMP-2", "conditions": "for MMP2 Fold Change: Caco2, relative to cont.Caco2 = 1", "experimental": "(§10) The treated cells were harvested and the total RNA was extracted using RNeasy Mini Kit (Qiagen) according to the manufacturer’s instruction. The primers of the required genes (Table 6) were used for SYBR Green qRT-PCR using a one-step RT-PCR kit with SYBR Green (Bio-Rad). qRT-PCR was performed on Rotor Gene Q (Qiagen). […] Rotor-Gene 6000 Series Software was used for data analysis. and their HGNC ID was added (Table 6)\n(§11) Researcher : Dr/Noura email: mob.\nas §5, §6, §7, §1"}, "MMP-9": {"test_system": "MMP-9", "test": "RT-qPCR gene expression of MMP-9", "conditions": "for MMP9 Fold Change: Caco2, relative to cont.Caco2 = 1", "experimental": "as §10, §11, §5, §6, §7, §1"}, "Bcl-2": {"test_system": "Bcl-2", "test": "RT-qPCR gene expression of Bcl-2", "conditions": "Caco2, β-actin as control gene, relative to cont.Caco2 = 1; listed as FA9", "experimental": "as §3, §4, §5, §6, §7, §1, §8, §9"}, "[3]": {"conditions": "Caco2, β-actin as control gene, relative to cont.Caco2 = 1, listed as FA9"}}, "note": "“And” between values parts separate entries of the source, which are not always exact repeats. Identical values can stand only once. Like-named read-outs stand apart in the source and are kept apart here."}
{"compound": "COc1cc(/C=C/C(=O)NC2CCCCC2)ccc1O", "note": "[Compound 15, (E)-N-Cyclohexyl-3-(4-hydroxy-3-methoxyphenyl)acrylamide]", "values": [{"measurement": "IC50", "setting": "Caco-2 cancer cell line; Homo sapiens, Caco-2", "value": 20, "unit": "µM"}, {"measurement": "%G0–G1", "setting": "Caco-2 cells [1]", "value": "26.59 ± 2.67", "unit": "%"}, {"measurement": "%G2/M", "setting": "Caco-2 cells [1]", "value": "50.83 ± 3.49", "unit": "%"}, {"measurement": "%S", "setting": "Caco-2 cells [1]", "value": "22.58 ± 2.91", "unit": "%"}, {"measurement": "%G0–G1", "setting": "Caco-2 cells [1]; listed as FA5", "value": 26.59, "unit": "%"}, {"measurement": "%G2/M", "setting": "Caco-2 cells [1]; listed as FA5", "value": 50.83, "unit": "%"}, {"measurement": "%S", "setting": "Caco-2 cells [1]; listed as FA5", "value": 22.58, "unit": "%"}, {"measurement": "%Pre-G1", "setting": "Caco-2 cells [1]", "value": "25.17% and 25.17 ± 3.29%"}, {"measurement": "Apoptosis Total", "setting": "Caco-2 cells [2]", "value": 25.17}, {"measurement": "Early Apoptosis", "setting": "Caco-2 cells [2]", "value": 5.79}, {"measurement": "Necrosis", "setting": "Caco-2 cells [2]", "value": 2.81}, {"measurement": "overexpression of p53 gene", "setting": "p53; Figures 6 and 7", "value": 10, "unit": "fold"}, {"measurement": "overexpression of caspase 3 gene", "setting": "Caspase 3; Figures 6 and 7", "value": 15, "unit": "fold"}, {"measurement": "overexpression of Bax gene", "setting": "Bax; Figures 6 and 7", "value": 15, "unit": "fold"}, {"measurement": "MMP2 Fold Change", "setting": "MMP-2", "value": "0.59±0.016", "unit": "Fold Change"}, {"measurement": "MMP9 Fold Change", "setting": "MMP-9", "value": "0.37±0.007", "unit": "Fold Change"}]}
{"compound": "COc1ccc(/C=C/C(=O)NCc2ccccc2)cc1O", "note": "[Compound 18, (E)-N-Benzyl-3-(3-hydroxy-4-methoxyphenyl) acrylamide]", "values": [{"measurement": "IC50", "setting": "Caco-2 cancer cell line", "value": 50, "unit": "µM"}, {"measurement": "apoptotic population compared to the parent compound", "setting": "Caco-2 cells [1]", "value": "non-significant decrease"}, {"measurement": "%G0–G1", "setting": "Caco-2 cells [1]", "value": "33.26 ± 4.29", "unit": "%"}, {"measurement": "%G2/M", "setting": "Caco-2 cells [1]", "value": "37.62 ± 2.47", "unit": "%"}, {"measurement": "%S", "setting": "Caco-2 cells [1]", "value": "29.12 ± 4.05", "unit": "%"}, {"measurement": "%G0–G1", "setting": "Caco-2 cells [1]; listed as FA9", "value": 33.26, "unit": "%"}, {"measurement": "%G2/M", "setting": "Caco-2 cells [1]; listed as FA9", "value": 37.62, "unit": "%"}, {"measurement": "%S", "setting": "Caco-2 cells [1]; listed as FA9", "value": 29.12, "unit": "%"}, {"measurement": "%Pre-G1", "setting": "Caco-2 cells [1]", "value": "12.92 ± 2.16", "unit": "%"}, {"measurement": "%Pre-G1", "setting": "Caco-2 cells [1]; listed as FA9", "value": 12.92, "unit": "%"}, {"measurement": "Apoptosis Total", "setting": "Caco-2 cells [2]", "value": 12.92}, {"measurement": "Early Apoptosis", "setting": "Caco-2 cells [2]", "value": 3.88}, {"measurement": "Late Apoptosis", "setting": "Caco-2 cells [2]", "value": 7.31}, {"measurement": "Necrosis", "setting": "Caco-2 cells [2]", "value": 1.73}, {"measurement": "P53 gene expression Fold Change", "setting": "p53; [3]", "value": "5.87±0.27 Fold Change and 5.878 Fold Change"}, {"measurement": "Casp3 gene expression Fold Change", "setting": "Caspase 3; [3]", "value": "6.02±0.33 Fold Change and 6.029 Fold Change"}, {"measurement": "Bax gene expression Fold Change", "setting": "Bax; [3]", "value": "6.06±0.41 Fold Change and 6.068 Fold Change"}, {"measurement": "Bcl2 gene expression Fold Change", "setting": "Bcl-2", "value": "0.58±0.03 Fold Change and 0.5856 Fold Change"}, {"measurement": "MMP2 Fold Change", "setting": "MMP-2", "value": "0.42±0.011", "unit": "Fold Change"}, {"measurement": "MMP9 Fold Change", "setting": "MMP-9", "value": "0.52±0.010", "unit": "Fold Change"}]}
{"compound": "(E)-3-(3-Hydroxy-4-methoxyphenyl)-N-(m-tolyl)acrylamide [Compound 17]", "values": [{"measurement": "IC50", "setting": "Caco-2 cancer cell line", "value": 20, "unit": "µM"}, {"measurement": "apoptotic population compared to the parent compound", "setting": "Caco-2 cells [1]", "value": "non-significant decrease"}, {"measurement": "%Pre-G1", "setting": "Caco-2 cells [1]", "value": "12.11 ± 0.97", "unit": "%"}, {"measurement": "%Pre-G1", "setting": "Caco-2 cells [1]; listed as FA8", "value": 12.11, "unit": "%"}, {"measurement": "Apoptosis Total", "setting": "Caco-2 cells [2]", "value": 12.11}, {"measurement": "Early Apoptosis", "setting": "Caco-2 cells [2]", "value": 4.25}, {"measurement": "Late Apoptosis", "setting": "Caco-2 cells [2]", "value": 6.25}, {"measurement": "Necrosis", "setting": "Caco-2 cells [2]", "value": 1.61}, {"measurement": "expression of MMP2 (in words)", "setting": "MMP-2; Figures 8 and 9", "value": "greatest inhibition"}, {"measurement": "expression of MMP9 (in words)", "setting": "MMP-9; Figures 8 and 9", "value": "greatest inhibition"}]}
